By IC50 is commonly meant the midpoint of a concentration-inhibition curve. Usually Papp B→A stands for the apparent permeability from the basolateral to the apical side of a cell layer. What is called efflux ratio is a quotient of directional permeabilities that is used to spot active efflux. A word on the Papp: it is a coefficient for how fast a substance crosses the barrier.

This note sets out measurements from US20250051337A1 (priority 2021, published 2025).

Marks after values point to notes of the source that are not given here. Bounds are passed on as bounds.

For one series, the target named is LRRK2 (Homo sapiens (Human), UniProt Q5S007). The series can be described thus: NanoBRET intracellular kinase assay, LRRK2. The class given is cell-based. To be noted: transfected HEK293 cells, 2 h. The method, then: Full-length STK3, STK4, and LRRK2 kinase was cloned in-frame with a C-terminal NanoLuc-fusion (Promega: Madison, WI, USA) and the plasmid was transfected into HEK293T cells using FuGENE HD (Promega, E2312). After 20 h, transfected cells were mixed with inhibitors and 50 nM NanoBRET Kinase Tracer K10 (Promega) and reseeded at a density of 2× 10^5 cells/mL in Opti-Minimal Essential Medium (MEM) without phenol red (Life Technologies; Carlsbad, CA, USA) in 384-well plates (Greiner 781-207; Kremsmunster, Austria). After 2 h at 37° C. in a 5% CO2 atmosphere, NanoBRET NanoGlo Substrate+Extra-cellular NanoLuc Inhibitor (Promega, N2540) was added, and filtered luminescence was measured on a PHERAstar plate reader (BMG Labtech; Ortenberg, Germany) equipped with a lumi-nescence filter pair (450 nm BP filter (donor) and 610 nm LP filter (acceptor)).
To confirm cellular potency for compounds described herein, the […] were used to detect engagement of STK3 and STK4 in live cells using the NanoBRET™ intracellular kinase assay, marking the first report of a NanoBRET assay for STK3 and STK4. This assay measured the apparent affinity of test compounds by competitive displacement of the NanoBRET™ tracer, reversibly bound to a NanoLuc® luciferase-kinase fusion in cells. To evaluate potential off-target activity of the inhibitors, the inhibition of LRRK2 in live cells by the STK3/4 inhibitors compounds described herein were measured. Cultured HEK293 cells were either transfected with NanoLuc®-STK3 fusion vector, NanoLuc®-STK4 fusion, or with NanoLuc®-LRRK2 vector for 24 h. A 50 nM tracer and these compounds were added to cells and incubated for 2 h. These compounds tested in the assays decreased the NanoBRET™ signal for both STK3 and STK4 at varying potencies and confirming cellular target engagement of STK3/4.
(In general: Bioluminescence resonance energy transfer reports proximity on the nanometre scale.)

A further series can be described thus: Caco-2 permeability. To be noted: human; for Papp B→A: Caco-2; for efflux ratio: Caco-2, Papp (B→A/A→B). The class given is in vitro ADME. On the procedure: (§1) The Caco-2 cell permeability was determined for selected compounds 6, 11, 16, and 23. Permeability is classified as follows: high >10, medium, 1-10, and low ≤1. The efflux ratio is calculated by Papp (B→A/A→B). A compound is a potential transporter substrate if efflux ratio >2.0. Atenolol, Propranolol, and Taxol were used as internal standards. Data is represented as an average of a single experiment preformed in duplicate. Apparent permeability=(Papp).

The subject of the next series is Caco-2 cell. The series can be described thus: Caco-2 permeability. The series is classed as in vitro ADME. To be noted: Caco-2, classification. The method, then: as §1
In general terms: Passage across Caco-2 layers is used to estimate intestinal permeability.

The subject of series [1] is Thr35-phosphorylated MOB1 in liver. The series can be described thus: Western blot analysis of p-MOB1 in mouse liver. The series is classed as in vivo. To be noted: mice; for levels of Thr35-phosphorylated MOB1 in liver vs vehicle / Relative decrease in liver p-MOB1 level: 20 mg/kg intraperitoneal; for levels of Thr35-phosphorylated MOB1 in liver vs vehicle: 1 h, p<0.002; for Relative decrease in liver p-MOB1 level: 1 h post-dose. On the procedure: […] Approximately 50 mg of liver tissue was placed in 1 mL Radioimmunoprecipitation assay (RIPA) buffer (50 mM Tris-HCl pH 8.0, 150 mM NaCl, 1.0% IGEPAL® CA-630, 0.5% sodium deoxycholate, and 0.1% SDS) containing phosphatase and protease inhibitor cocktails, homogenized with a PowerGen 125 homogenizer (Fisher Scientific), and then sonicated for 10 s. Homogenized tissues were centrifuged at 14,000×g at 4° C. for 20 min and the supernatants were recovered.
Protein concentrations in the supernatants were determined using a BCA assay (Pierce/Thermo Scientific). Proteins were separated on Novex™ WedgeWell™ 4-20% Tris-Glycine Gels (Invitrogen: Carlsbad, CA, USA) and transferred to polyvinylidene difluoride (Trans-Blot® Turbo™ Transfer Pack) membranes. Membranes were blocked in Tris-buffered saline Tween® 20 (50 mM Tris-HCl pH 7.6, 150 mM NaCl, 0.05% Tween 20: TBST) containing 3% Bovine Serum Albumin (BSA) for 1 h at room temperature and incubated overnight at 4° C. with primary antibodies as follows: 1:1000 dilution of anti-MOB1 (rabbit monoclonal antibody [mAb]#13730), 1:1000 anti-phospho-MOB1 Thr35 (rabbit mAb #8699), or 1:5000 anti-GAPDH (rabbit mAb #2118: all from Cell Signaling Technology: Danvers, MA, USA). Blots were rinsed three times with TBST and then incubated in 5% nonfat milk containing horseradish peroxidase (HRP)-conjugated mouse anti-rabbit IgG secondary Ab (Cell Signaling Technology) for 1 h at RT. Blots were washed three times with TBST, developed using Pierce® ECL Western Blotting reagent, and imaged and analyzed using with ImageJ software. Quantitative data are expressed as the level of phosphorylated MOB1 normalized to total MOB1.
Adult female C57BL/6 mice (n=3/group) were intraperitoneally injected with vehicle or test compound (20 mg/kg), and blood samples and livers were collected at 30 min and 1 h post-injection, respectively. Plasma concentrations of all 13 compounds were >1.4 μM at 30 min after injection, and 10 compounds had liver concentrations >1.0 μM at 1 h after injection, as measured by LC-MS/MS, with particularly high plasma concentrations obtained with compounds 11 (15.9 μM), 16 (11.6 μM) and 105 (8.7 μM) (Table 5). To evaluate target engagement in vivo, the total and phosphorylated MOB1 levels in livers collected at 1 h post-injection was examined.
On the technique in general: A western blot detects proteins with antibodies after separation by electrophoresis.

The subject of series [2] is phosphorylated MOB1 (Thr35) in HEK293 cells. The series can be described thus: Western blot analysis of p-MOB1 in HEK293 cells. The class given is cell-based. Conditions: 10 μM, 4 h, then H2O2 50 μM 2 h, vs DMSO. The method, then:
Cells were harvested by pipetting, pelleted by centrifugation at 1400 rpm for 4 min, and lysed in RIPA buffer for 10 min at room temperature. The lysates were centrifuged at 12,000×g at room temperature (RT) for 10 min and the supernatants were recovered. Protein concentrations in the supernatants were determined using a BCA assay (Pierce/Thermo Scientific). Proteins were separated on NovexTM WedgeWellTM 4-20% Tris-Glycine Gels (Invitrogen; Carlsbad, CA, USA) and transferred to polyvinylidene difluoride (Trans-Blot® TurboTM Transfer Pack) membranes. […] Danvers. MA. USA). Blots were rinsed three times with TBST and then incubated in 5% nonfat milk containing horseradish peroxidase (HRP)-conjugated mouse anti-rabbit IgG secondary Ab (Cell Signaling Technology) for 1 h at RT. Blots were washed three times with TBST, developed using Pierce® ECL Western Blotting reagent, and imaged and analyzed using with ImageJ software. Quantitative data are expressed as the level of phosphorylated MOB1 normalized to total MOB1. To confirm that the cellular mechanism of action of our inhibitors was through inhibition of Hippo pathway signaling. […] Inhibition of STK3/4 in vitro and in vivo can produce decreased phosphorylation of the Hippo pathway adapter protein MOB1 at […].

LRRK2, sequence (Q5S007 whole entry, species assumed, the tested form may be a part): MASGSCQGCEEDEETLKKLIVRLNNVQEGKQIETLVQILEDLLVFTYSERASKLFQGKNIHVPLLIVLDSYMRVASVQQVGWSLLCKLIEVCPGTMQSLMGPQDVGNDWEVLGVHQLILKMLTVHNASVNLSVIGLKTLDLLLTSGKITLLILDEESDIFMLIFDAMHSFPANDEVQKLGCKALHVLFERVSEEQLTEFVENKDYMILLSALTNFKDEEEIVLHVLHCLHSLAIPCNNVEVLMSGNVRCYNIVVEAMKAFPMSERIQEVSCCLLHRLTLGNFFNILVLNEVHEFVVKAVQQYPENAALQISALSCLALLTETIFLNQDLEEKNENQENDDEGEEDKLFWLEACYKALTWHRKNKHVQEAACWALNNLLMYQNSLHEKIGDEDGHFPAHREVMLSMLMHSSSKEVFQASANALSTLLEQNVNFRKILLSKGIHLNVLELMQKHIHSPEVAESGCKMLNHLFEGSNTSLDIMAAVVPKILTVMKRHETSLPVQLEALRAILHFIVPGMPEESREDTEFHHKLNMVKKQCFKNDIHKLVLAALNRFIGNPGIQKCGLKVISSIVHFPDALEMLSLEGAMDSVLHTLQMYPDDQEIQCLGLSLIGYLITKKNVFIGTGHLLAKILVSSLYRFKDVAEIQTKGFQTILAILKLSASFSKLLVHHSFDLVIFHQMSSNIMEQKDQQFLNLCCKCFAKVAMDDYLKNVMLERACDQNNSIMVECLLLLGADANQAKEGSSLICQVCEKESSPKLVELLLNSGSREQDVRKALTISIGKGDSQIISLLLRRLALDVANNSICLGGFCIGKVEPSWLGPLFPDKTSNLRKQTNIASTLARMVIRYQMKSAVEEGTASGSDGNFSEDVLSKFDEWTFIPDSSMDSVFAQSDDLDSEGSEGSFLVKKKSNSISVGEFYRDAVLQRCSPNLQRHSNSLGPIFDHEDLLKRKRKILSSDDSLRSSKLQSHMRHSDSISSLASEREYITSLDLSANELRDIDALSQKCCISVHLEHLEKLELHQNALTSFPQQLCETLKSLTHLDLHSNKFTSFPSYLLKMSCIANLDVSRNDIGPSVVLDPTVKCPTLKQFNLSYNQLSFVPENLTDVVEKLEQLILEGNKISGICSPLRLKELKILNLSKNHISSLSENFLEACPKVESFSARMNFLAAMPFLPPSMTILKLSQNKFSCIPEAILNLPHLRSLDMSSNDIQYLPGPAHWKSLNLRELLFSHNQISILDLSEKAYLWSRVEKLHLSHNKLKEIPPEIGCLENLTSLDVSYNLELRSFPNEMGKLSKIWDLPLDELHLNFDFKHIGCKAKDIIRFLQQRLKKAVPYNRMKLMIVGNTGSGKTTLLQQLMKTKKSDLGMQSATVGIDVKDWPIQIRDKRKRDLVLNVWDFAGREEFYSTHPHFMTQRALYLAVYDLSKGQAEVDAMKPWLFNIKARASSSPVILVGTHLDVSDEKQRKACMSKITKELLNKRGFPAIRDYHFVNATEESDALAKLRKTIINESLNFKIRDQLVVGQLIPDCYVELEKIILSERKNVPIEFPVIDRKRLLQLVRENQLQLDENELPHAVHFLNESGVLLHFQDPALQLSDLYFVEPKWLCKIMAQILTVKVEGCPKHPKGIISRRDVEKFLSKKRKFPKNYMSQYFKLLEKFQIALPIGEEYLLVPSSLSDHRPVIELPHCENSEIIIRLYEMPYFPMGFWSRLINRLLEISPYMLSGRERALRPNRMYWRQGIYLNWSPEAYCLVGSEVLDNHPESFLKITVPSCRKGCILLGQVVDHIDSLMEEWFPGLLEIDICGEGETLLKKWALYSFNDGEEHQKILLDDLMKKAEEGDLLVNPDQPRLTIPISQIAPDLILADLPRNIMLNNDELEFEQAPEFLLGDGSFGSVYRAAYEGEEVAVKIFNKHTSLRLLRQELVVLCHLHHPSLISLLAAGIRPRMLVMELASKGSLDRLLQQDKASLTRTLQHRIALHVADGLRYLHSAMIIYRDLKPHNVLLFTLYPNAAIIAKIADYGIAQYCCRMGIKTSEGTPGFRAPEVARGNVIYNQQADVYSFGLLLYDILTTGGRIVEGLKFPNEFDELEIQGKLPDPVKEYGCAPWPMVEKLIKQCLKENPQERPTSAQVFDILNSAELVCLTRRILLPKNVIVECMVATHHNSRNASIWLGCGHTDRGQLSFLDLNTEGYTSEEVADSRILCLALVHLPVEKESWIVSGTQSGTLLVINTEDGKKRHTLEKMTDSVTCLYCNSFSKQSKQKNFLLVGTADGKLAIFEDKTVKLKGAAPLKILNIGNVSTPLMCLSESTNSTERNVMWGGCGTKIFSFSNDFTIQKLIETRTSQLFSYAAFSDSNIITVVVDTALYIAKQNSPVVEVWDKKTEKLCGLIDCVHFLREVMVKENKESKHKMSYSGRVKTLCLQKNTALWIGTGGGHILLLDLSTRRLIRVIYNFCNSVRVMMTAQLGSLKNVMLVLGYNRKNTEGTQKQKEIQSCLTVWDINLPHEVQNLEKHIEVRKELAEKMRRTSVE

For the compound `Clc1cccc(-c2c[nH]c3ncnc(N4CCOCC4)c23)c1` [Compound 6, 4-(5-(3-Chlorophenyl)-7H-pyrrolo[2,3-d]pyrimidin-4-yl)morpholine], the half-maximal inhibitory concentration (IC50) against LRRK2 is no more than 1 µM. Besides, the apparent permeability from basolateral to apical (Papp B→A) in “Caco-2 permeability” turned out to be 35.7 ×10⁻⁶ cm/s. In addition, in the series with Caco-2 cell, the Permeability entry is listed as “High”.
With `CC(=O)NC1CCN(c2ncnc3[nH]cc(-c4cccc(Cl)c4)c23)CC1` [Compound 105, N-(1-(5-(3-chlorophenyl)-7H-pyrrolo[2,3-d]pyrimidin-4-yl)piperidin-4-yl)acetamide], the “LRRK2: IC50” value at LRRK2 was “B (B: IC50 is >2000 nM and <1000 nM)”. Also, in series [1], the “levels of Thr35-phosphorylated MOB1 in liver vs vehicle” value (“levels … vs vehicle” below) was “significant reduction” and the “Relative decrease in liver p-MOB1 level” value was 99%**. For the same compound, in series [2], the “relative expression level of phosphorylated MOB1” value (shortened to “relative expression level”) is “significant reduction”.
Regarding `Clc1cccc(-c2c[nH]c3nccc(N4CCOCC4)c23)c1` [Compound 23, 4-(3-(3-chlorophenyl)-1H-pyrrolo[2,3-b]pyridin-4-yl)morpholine], on LRRK2, the half-inhibitory concentration (IC50) was no more than 1 µM. In addition, the “Relative decrease in liver p-MOB1 level” value in series [1] was 33%. Further, in the series “Caco-2 permeability”, the basolateral-to-apical permeability (Papp B→A) was determined as 7 ×10⁻⁶ cm/s and the efflux ratio worked out at 1.6. The Permeability result in the series with Caco-2 cell is “High”. Moreover, in series [2], the “relative expression level” value is given as “significant reduction”.
Compound `NC(=O)c1cccc(-c2c[nH]c3ncnc(N4CCOCC4)c23)c1` [Compound 11, 3-(4-Morpholino-7H-pyrrolo[2,3-d]pyrimidin-5-yl)benzamide] gave an IC50 on LRRK2 of no less than 2 µM. Moreover, in series [1] (10 mg/kg intraperitoneal, 1, 2, 3 h), the “inhibition of MOB1 phosphorylation in liver” value is “maximum inhibition of MOB1 phosphorylation observed at 1 h”. Besides, the “levels … vs vehicle” value in series [1] is on record as “significant reduction”. In addition, the apparent permeability from basolateral to apical (Papp B→A) in the series “Caco-2 permeability” turned out to be 136 ×10⁻⁶ cm/s. Further, the Permeability entry with Caco-2 cell was “Medium to High”.
`OC1CCN(c2ncnc3[nH]cc(-c4cccc(Cl)c4)c23)CC1` [Compound 16, 1-(5-(3-Chlorophenyl)-7H-pyrrolo[2,3-d]pyrimidin-4-yl)piperidin-4-ol]: the “LRRK2: IC50” value on LRRK2 was “B (B: IC50 is >2000 nM and <1000 nM)”. Further, in series [1], the “levels … vs vehicle” value was “significant reduction” and the “Relative decrease in liver p-MOB1 level” value is 78%**. Moreover, in “Caco-2 permeability”, the basolateral-to-apical permeability (Papp B→A) was 294 ×10⁻⁶ cm/s and the efflux ratio amounted to 1.3. The compound also displayed an apparent permeability (Papp) in “Caco-2 permeability” (Caco-2, classification) greater than 10 ×10⁻⁶ cm/s. In addition, in the series on Caco-2 cell, the Permeability entry is “High”. The “relative expression level” value in series [2] is “significant reduction”.
